One series has as its system Phytophthora infestans. It is filed as cell-based. The settings on record: 405 nm, 7 days after inoculation, 18° C.
The test system of series [1] is Sugar beet seeds (Beretta). The series can be described thus: Safener effect of dimethomorph: germination of pelleted sugar beet seeds under cold stress. It is filed as in vivo. The settings on record: 30 g a.i./U seed pelleting; % of sown seeds; 6 days 13° C. then 5° C.; all seeds also treated with 6 g/U thiram and 14.7 g/U hymexazole. The protocol: Sugar beet seeds (Beretta) were pelleted either with pyraclostrobin alone or with pyraclostrobin in combination with dimethomorph. After sowing, the seeds (200 seeds per treatment, 4 repetitions) were grown for 6 days at 13° C. and then exposed to 5° C. for 7 days. Cultivation was then continued at 20° C. During the whole cultivation period the soil was kept at 20% humidity. 7 and 8 days after sowing (DAS) germination was assessed as % of the number of sown seeds.

The subject of a further series is Septoria tritici. The settings on record: 0.004 ppm; 405 nm, 7 days after inoculation, 18° C.

Read-outs that look alike come from different tables or passages of the source.

Results on four molecules are retold here after US20120010072A1 (priority 2009, published 2012).

On to `C/C(=N\C#N)N(C)Cc1ccc(Cl)nc1` [Acetamiprid], for which the Observed efficacy in the series with Phytophthora infestans (0.25 ppm) amounted to 0%. Same read-out and setting: with `COc1ccc(C(=CC(=O)N2CCOCC2)c2ccc(Cl)cc2)cc1OC` [Dimethomorph] the figure was 51%. Regarding `CC(C)C1CCC(Cc2ccc(Cl)cc2)C1(O)Cn1cncn1` (stereo not drawn) [Ipconazol], the Observed efficacy in the series on Phytophthora infestans (0.063 ppm) is given as 2%.

As to `COC(=O)N(OC)c1ccccc1COc1ccn(-c2ccc(Cl)cc2)n1` [Pyraclostrobin], in series [1], the “Germination 7 DAS” value is 16% and the “Germination 8 DAS” value turned out to be 27%. The molecule further displayed an Observed efficacy with Septoria tritici of 49%.
